Values quoted from earlier work in patent US9750251B2, “Liquid herbicidal preparations” (BAYER INTELLECTUAL PROPERTY GMBH, priority 2008, dated 2017).
≈ marks a conversion by molar mass, not a printed value.

Conditions: at 25° C.

SMILES: CCOC1Oc2ccc(OS(C)(=O)=O)cc2C1(C)C (racemic) [ethofumesate]
- water solubility: 50 µg/mL (≈ 175 µM)
